Laboratory results: patent publication US20190248834A1, “ENDOMORPHIN-2, TETRAPEPTIDE DERIVATIVES THEREOF, AND USES THEREOF” (priority 2016, published 2019)

System: hallux valgus (bunion)
Test: Example 26: analgesic effect on painful inflammation of hallux valgus, topical
Format: in vivo, human
Text: A subject had hallux valgus of the right 1st metatarsal-proximal phalangeal joint for a duration of 5-6 years. Pain in the joint was episodic and associated with inflammation. […] A second application of the solution was made that evening, even though there was no pain. […] Such improvement lasted over the next 2 weeks.

Which results are given for `CC(=O)N[C@@H](Cc1ccc(O)cc1)C(=O)N1CCC[C@H]1C(=O)N[C@@H](Cc1ccccc1)C(=O)N[C@@H](Cc1ccccc1)C(N)=O` [N-Ac-Tyr-Pro-Phe-Phe-NH2]?
erythema, swelling and pain (1% (w/v) in WEP442, morning after second application): the erythema was gone, the swelling had subsided, and there was no pain; duration of improvement (1% (w/v) in WEP442, topical): 2 weeks; pain relief (1% (w/v) in WEP442, topical): all pain was gone; time to pain relief (1% (w/v) in WEP442, topical): ≤ 15 min
